For experiment [1], the target named is T1, RecG (Thermotoga maritima, UniProt Q9WY48).
T1 construct: made in house
T1 sequence (Q9WY48 1-780): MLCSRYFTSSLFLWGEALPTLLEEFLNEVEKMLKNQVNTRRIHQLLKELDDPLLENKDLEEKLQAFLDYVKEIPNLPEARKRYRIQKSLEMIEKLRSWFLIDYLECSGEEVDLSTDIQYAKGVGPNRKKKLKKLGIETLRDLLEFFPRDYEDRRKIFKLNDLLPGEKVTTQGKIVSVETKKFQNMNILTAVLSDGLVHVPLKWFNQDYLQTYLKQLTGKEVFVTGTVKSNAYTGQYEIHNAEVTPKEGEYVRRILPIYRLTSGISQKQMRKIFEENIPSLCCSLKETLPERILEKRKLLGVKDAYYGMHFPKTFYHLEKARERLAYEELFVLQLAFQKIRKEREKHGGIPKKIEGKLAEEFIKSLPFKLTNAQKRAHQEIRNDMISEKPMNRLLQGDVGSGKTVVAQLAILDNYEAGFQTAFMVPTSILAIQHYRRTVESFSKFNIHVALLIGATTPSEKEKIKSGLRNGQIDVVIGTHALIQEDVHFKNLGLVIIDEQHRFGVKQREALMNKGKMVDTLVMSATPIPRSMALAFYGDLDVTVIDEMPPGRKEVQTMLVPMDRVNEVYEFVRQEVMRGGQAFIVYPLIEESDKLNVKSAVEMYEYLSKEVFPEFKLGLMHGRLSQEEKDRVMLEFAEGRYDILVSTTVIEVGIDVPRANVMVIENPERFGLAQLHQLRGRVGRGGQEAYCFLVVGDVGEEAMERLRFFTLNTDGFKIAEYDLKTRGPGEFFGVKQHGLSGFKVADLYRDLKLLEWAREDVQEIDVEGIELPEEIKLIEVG
Further details: method as in PMID 16363810. Conditions: much lower concentration of DNA; cited from earlier work.

The target in experiment [2] is T1, RecG. The experiment in a line: Phosphate-water oxygen exchange during hydrolysis. Format: biochemical. Conditions: 20°C, Table 2 summary.
The target of experiment [3] is T2, RecG⋅DNA(A40:B40) (Thermotoga maritima, UniProt Q9WY48).
T2 construct: made in house
T2 sequence (Q9WY48 1-780): T1 sequence (Q9WY48 1-780)
As to the kind of experiment: Single turnover Pi release kinetics with MDCC-PBP. It is filed as biochemical. The method, then: Using the phosphate biosensor, MDCC-PBP [13], the kinetics of Pi release were measured under the same conditions (Figure 4A). Fitting the trace by a lag then a single exponential increase gave rate constants of 3.3 s^−1 and 0.21 s^−1. This rate constant for the lag was similar to the observed rate constant for binding at this concentration. The exponential increase had the same rate constant for the slow phase of the mant fluorescence and for the quench-flow measurement of mantADP formation. Thus Pi release occurs rapidly, following the rate-determining cleavage step.
(§1) Stopped-flow experiments were performed in a HiTech SF61DX2 apparatus (TgK Scientific Ltd, Bradford-on-Avon, UK) with a mercury-xenon light source and HiTech KinetAsyst 3 or Kinetic Studio 1 software. For MDCC-PBP fluorescence, the excitation wavelength used was 436 nm and a 455 nm cut-off filter (Schott glass) used to collect emitted light. The signal was calibrated using known concentrations of Pi. The solutions contained the Pi mop, to minimize phosphate contamination and comprising 0.01 unit ml^−1 bacterial purine nucleoside phosphorylase and 200 µM 7-methylguanosine. For mant fluorescence, 366 nm was used to excite and a 400 nm cut-off filter (Schott glass) used to collect light. Measurements of Cy3 fluorescence used 547 nm excitation and a 570 nm cut-off filter. In experiments described, the quoted concentrations are those in the mixing chamber, except where stated. Data were fitted to theoretical curves using the HiTech software or Grafit.

The target of experiment [4] is T2, RecG⋅DNA(A40:B40). As to the kind of experiment: Stopped-flow mant fluorescence: mant nucleotide binding to RecG⋅DNA, pseudo-first-order. The following applies: 20°C. The method, then: MantATP binding to RecG⋅DNA(A40:B40) was measured under pseudo-first-order conditions, that is mantATP in large excess over the protein. Using the stopped-flow apparatus, several concentrations of mantATP were rapidly mixed with RecG⋅DNA and fluorescence followed with time. Each trace was fitted by a single exponential (Figure 3A) and the concentration dependence of the observed rate constants were fit well by a hyperbola (Figure 3B). […] As mantATP is also hydrolyzed, the rate of the forward reaction needs to be included, in this case limited by the cleavage step 2, as described later. The fit gives 1/K 1a as 24 (±4) µM, k +1b + k −1b + k +2 as 26.1 (±1.8) s^−1 and the intercept gives k −1b + k +2 as <1 s^−1. Given that k +2 is 0.2 s^–1 (see below), k −1b is <0.8 s^−1. Potentially, an alternative explanation for such a hyperbolic relationship could be preferential binding of either the 2′- or 3′-isomer of mantATP and then isomerization of the non-favored isomer. However, the observed rates in these measurements were several orders of magnitude faster than the likely isomerization rate. In order to assess whether the two isomers of mantATP and their interconversion are factors in any fluorescence traces for mantATP, an equivalent measurement was made using 3′-mant-2′-deoxyATP.
Figure 3 MantATP binding to RecG⋅DNA. MantATP at the micromolar concentrations shown was mixed in the stopped flow apparatus with 0.5 µM RecG and 2.5 µM DNA Junction (A40:B40) at 20°C in the buffer described in materials and methods. Individual traces (offset from each other) were fitted to single exponentials and the dependence of the rate constants on concentration was then fitted by a hyperbola. The points shown are averages of at least 3 measurements. The fit gives 1/K 1a as 24 (±4) µM and k +1b + k− 1b + k +2 as 26.1 (±1.8) s^−1 and the intercept was <1 s^–1 (Scheme in Figure 2B).
MantADP binding to RecG⋅DNA complex was measured under pseudo-first order conditions by stopped-flow fluorescence.
Figure 5 MantADP binding kinetics to RecG⋅DNA. MantADP at various concentrations was mixed in the stopped flow apparatus with 0.5 µM RecG and 2.5 µM DNA (A40:B40) under the conditions of Figure 4. Traces (not shown) were fitted by single exponentials. The rate constants are shown as a function of concentration and the best linear fit, gives a slope of 1.1 (±0.4) µM^−1s^−1 and an intercept of <1 s^−1.
as §1

[5] abbreviates: 0.5 µM mantATP, 2.5 µM RecG, 5 µM DNA.

Each structure is given as a SMILES string.

For `Nc1ncnc2c1ncn2[C@@H]1O[C@H](COP(=O)(O)OP(=O)(O)OP(=O)(O)O)[C@@H](O)[C@H]1O` [ATP], in experiment [1], the “K m previously reported” value was 42 µM and the “k cat previously reported” value is 5.2 s⁻¹.
Turning to `CNc1ccccc1C(=O)O[C@H]1[C@@H](O)[C@H](n2cnc3c(N)ncnc32)O[C@@H]1COP(=O)(O)OP(=O)(O)OP(=O)(O)O` [mantATP, 2′(3′)-O-(N-methylanthraniloyl)ATP], the “k −2 (reverse of cleavage)” value in experiment [2] was less than 0.01 s⁻¹. In addition, in experiment [3] (setting [5]), the “Pi release: rate constant of exponential increase” value is 0.21 s⁻¹ and the “Pi release: rate constant of lag” value came to 3.3 s⁻¹. The “k +3 (Pi release)” value in experiment [3] (20°C, Table 2 summary) is greater than 10 s⁻¹. Further, in experiment [4], the “k +1b” value is 25.1 s⁻¹ and the “k −1b” value was less than 0.8 s⁻¹. Besides, in experiment [4] (linear fit), the “k −4 (mantADP second order binding rate constant, slope)” value is 1.1e+06 M⁻¹ s⁻¹. For the same compound, in experiment [4] (hyperbolic fit), the “intercept, k −1b + k +2” value is less than 1 s⁻¹ and the “k +1b + k −1b + k +2” value was 26.1 (±1.8) s^−1.
